Laboratory results taken from US10421784B2, “Cell penetrating peptides for intracellular delivery of molecules” (AADIGEN, LLC, priority 2012, dated 2019).

How the values were obtained:
CEM-SS [1] = test: Uptake of Cy-5 labelled small peptide (FACS); assay type: cell-based, Human
Method: (§1) Adherent HS68 fibroblasts, HeLa, PC3, MCF-7, SCK3-Her2, PBMC cell lines (from American Type Culture Collection (ATCC)) were cultured in Dulbecco's Modified Eagle's Medium supplemented with 2 mM glutamine, 1% antibiotics (streptomycin 10,000 μg/ml, penicillin, 10,000 IU/ml) and 10% (w/v) foetal calf serum (FCS), at 37° C. in a humidified atmosphere containing 5% CO2. Stock solutions of VEPEP-9/peptide particles were prepared by complexing 1 μM peptide with VEPEP-9 peptides at a molar ratio of 1/20 for 30 min at 37° C. Lower concentrations of VEPEP-9-carrier/peptide (from 500 nM to 1 μM) were obtained by serial dilution of the stock complexes in PBS, in order to preserve the same VEPEP-9-carrier/peptide ratio. Stock solutions of VEPEP-9/siRNA particles were prepared by complexing 100 nM siRNA with VEPEP-9 peptides at a molar ratio of 1/20 for 30 min at 37° C. Lower concentrations of VEPEP-9/siRNA (from 20 nM to 0.125 nM) were obtained by serial dilution of the stock complexes in PBS, in order to preserve the same VEPEP-9/siRNA ratio. 150,000 cells seeded in a 35 mm dish the day prior transfection, were grown to 60% confluence and overlaid with 200 μl of preformed complexes, incubated for 3-5 min, then 400 μl of DMEM were added. After 30 min. incubation at 37° C., 1 ml of fresh DMEM containing 16% foetal calf serum (FCS) was added in order to reach a final FCS concentration of 10%, without removing the overlay of VEPEP-9/cargo complexes. Cells were returned to the incubator for 24 hrs. For cdk2 derived peptides, cell proliferation was monitored after 24 and 48 hrs. For siRNA targeting Cyclin B1, Cyclin B1 mRNA level was determined 24 hrs following transduction, using Quantigen (Pommies Inc.). Data reported are an average of 3 or 4 distinct experiments.
(§2) VEPEP-9a, VEPEP-9c and VEPEP-9f have been used for the delivery of small peptides into different cell lines, including primary cell lines, stem cell lines and challenging cell lines. Cargoes uptake was monitored using fluorescence spectroscopy and FACS analysis. Fluorescently labelled peptides were visualized in the different cell lines using fluorescence microscopy or FACS sorting (Table 4). In most of the cell lines, the uptake of Cy-5 labelled peptide is more than 70% of the cells.

Jurkat [2] = test: Uptake of Cy-5 labelled small peptide (FACS); assay type: cell-based, Human
Method: as §1, §2

HepG2 [3] = test: Uptake of Cy-5 labelled small peptide (FACS); assay type: cell-based, Human
Method: as §1, §2

MT4 [4] = test: Uptake of Cy-5 labelled small peptide (FACS); assay type: cell-based, Human
Method: as §1, §2

Hela [5] = test: Uptake of Cy-5 labelled small peptide (FACS); assay type: cell-based, Human
Method: as §1, §2

U2OS [6] = test: Uptake of Cy-5 labelled small peptide (FACS); assay type: cell-based, Human
Method: as §1, §2

HS-68 [7] = test: Uptake of Cy-5 labelled small peptide (FACS); assay type: cell-based, Human
Method: as §1, §2

MCF7 [8] = test: Uptake of Cy-5 labelled small peptide (FACS); assay type: cell-based, Human
Method: as §1, §2

cultured cells = test: Cell cycle progression / cyclin B1 levels in cultured cells; assay type: cell-based; settings: carrier alone (200 μM)
PNA (15 mer -PNA) = test: Fluorescence titration, VEPEP-9/cargo binding; settings: cargo PNA (15 mer)
Method: (§3) Fluorescence experiments were performed on a PTI spectrofluorimeter at 25° C. in a NaCl 154 mM buffer. Intrinsic Trp-fluorescence of VEPEP-9 was excited at 290 nm and emission spectrum was recorded between 310 and 400 nm, with a spectral band-pass of 2 and 8 nm for excitation and emission, respectively. FITC- or CY5-fluorescence of labelled-peptide or Oligonucleotide were excited at 492 nm and emission recorded between 500 and 580 nm. For VEPEP-9/peptide interaction, 0.5 μM of FITC-labelled peptide was titrated by increasing concentrations of VEPEP-9. For VEPEP-9/oligonucleotide interaction, 200 nM of FITC or CY5-labelled oligodeoxynucleotide (ODN) was titrated by increasing concentrations of VEPEP-9. All measurements were corrected for the dilution and curve fitting were performed by using Grafit software (Erithacus).
(§4) VEPEP-9 peptide form stable complexes with peptides and ODN. The binding of cargos to VEPEP-9 was monitored by fluorescence spectroscopy using the both intrinsic Trp group of VEPEP-9 (3 to 5 Trp-residues) and extrinsic fluorescently labelled cargoes (using Cy3, Cy5 or FITC). Curve fitting reveal that VEPEP-9 strongly binds the different cargoes with dissociation constant in the nanomolar range (Tables 1 and 2 and FIG. 2).
(§5) VEPEP-9 peptides form stable particles with different cargoes including peptide, siRNA, PNA and small aromatic (FIG. 2). The dissociation constant for peptide, siRNA, PNA and small hydrophobic molecule ranges between 10-100 nM, 5-50 nM, 5-50 nM and 0.02 to 0.2 μM, respectively, depending on the nature of the dyes and of the cargoes.

siRNA = test: Fluorescence titration, VEPEP-9/cargo binding; settings: cargo siRNA
Method: as §3, §4, §5

Peptide (C4) = test: Fluorescence titration, VEPEP-9/cargo binding; settings: cargo peptide (C4)
Method: as §3, §4, §5

[9] = Fluorescence titration, VEPEP-9/cargo binding; settings: cargo SHM
Method: as §3, §4, §5

C2C12 [10] = test: Uptake of Cy-5 labelled small peptide (FACS); assay type: cell-based, Mouse
Method: as §1, with “Cells were returned to the incubator for 24 hrs.” left out, “Data reported are an average of 3 or 4 distinct experiments.” left out
(§6) VEPEP-9a, VEPEP-9c and VEPEP-9f have been used for the delivery of small peptides into different cell lines, including primary cell lines, stem cell lines and challenging cell lines. Cargoes uptake was monitored using fluorescence spectroscopy and FACS analysis. Fluorescently labelled peptides were visualized in the different cell lines using fluorescence microscopy or FACS sorting (Table 4). […]

STEM [11] = test: Uptake of Cy-5 labelled small peptide (FACS); assay type: cell-based, Mouse
Method: as §1, with “Cells were returned to the incubator for 24 hrs.” left out, “Data reported are an average of 3 or 4 distinct experiments.” left out
as §6

MEF [12] = test: Uptake of Cy-5 labelled small peptide (FACS); assay type: cell-based, Mouse
Method: as §1, with “Cells were returned to the incubator for 24 hrs.” left out, “Data reported are an average of 3 or 4 distinct experiments.” left out
as §6

CEM-SS [13] = test: Uptake of Cy-5 labelled PNA (FACS); assay type: cell-based, Human
From the text: (§7) VEPEP-9 peptides have been used for the delivery of nucleic acid analogues (PNA and morpholino) into different cell lines, including primary cell lines and challenging cell lines. […] Uptake was monitored using fluorescence spectroscopy and following biological response (Cyclin B1 knockdown).
(§8) Fluorescently labelled PNA was visualized in the different cell lines using fluorescence microscopy or FACS sorting (Table 5). In most of the cell lines, the uptake of Cy-5 labelled PNA is more than 60% of the cells.

Jurkat [14] = test: Uptake of Cy-5 labelled PNA (FACS); assay type: cell-based, Human
From the text: as §7, §8

HepG2 [15] = test: Uptake of Cy-5 labelled PNA (FACS); assay type: cell-based, Human
From the text: as §7, §8

MT4 [16] = test: Uptake of Cy-5 labelled PNA (FACS); assay type: cell-based, Human
From the text: as §7, §8

Hela [17] = test: Uptake of Cy-5 labelled PNA (FACS); assay type: cell-based, Human
From the text: as §7, §8

U2OS [18] = test: Uptake of Cy-5 labelled PNA (FACS); assay type: cell-based, Human
From the text: as §7, §8

HS-68 [19] = test: Uptake of Cy-5 labelled PNA (FACS); assay type: cell-based, Human
From the text: as §7, §8

MCF7 [20] = test: Uptake of Cy-5 labelled PNA (FACS); assay type: cell-based, Human
From the text: as §7, §8

C2C12 [21] = test: Uptake of Cy-5 labelled PNA (FACS); assay type: cell-based, Mouse
From the text: as §7, §8

STEM [22] = test: Uptake of Cy-5 labelled PNA (FACS); assay type: cell-based, Mouse
From the text: as §7, §8

MEF [23] = test: Uptake of Cy-5 labelled PNA (FACS); assay type: cell-based, Mouse
From the text: as §7, §8

[24] = Fluorescence titration, VEPEP-9/SHM binding
Method: as §3
Binding of small molecule cargoes has been investigated in detailed depending on the nature of the SHM. Several hydrophobic molecules have been used (Daunomycin, Paclitaxel, doxorubicin, porphyrin), as well as charged molecules (nucleotide, nucleoside and fluorescent dyes).

X1WWRWWAPWARSWWR [VEPEP-9f, X1 is beta-A or S]
Efficiency (uptake of Cy-5 labelled small peptide) (CEM-SS [1]): 87% | Efficiency (uptake of Cy-5 labelled small peptide) (Jurkat [2]): 65% | Efficiency (uptake of Cy-5 labelled small peptide) (HepG2 [3]): 48% | Efficiency (uptake of Cy-5 labelled small peptide) (MT4 [4]): 56% | Efficiency (uptake of Cy-5 labelled small peptide) (Hela [5]): 60% | Efficiency (uptake of Cy-5 labelled small peptide) (U2OS [6]): 57% | Efficiency (uptake of Cy-5 labelled small peptide) (HS-68 [7]): 67% | Efficiency (uptake of Cy-5 labelled small peptide) (MCF7 [8]): 89% | effect on cell cycle progression (cultured cells): no effect | Binding (PNA (15 mer -PNA)): Yes | Kd (PNA (15 mer -PNA)): > 50 nM | Binding (siRNA): yes | Kd (siRNA): > 200 nM | Binding (Peptide (C4)): yes | Binding [9]: Yes | Kd [9]: 20 to 100 nM | Efficiency (uptake of Cy-5 labelled small peptide) (C2C12 [10]): 57% | Efficiency (uptake of Cy-5 labelled small peptide) (STEM [11]): 76% | Efficiency (uptake of Cy-5 labelled small peptide) (MEF [12]): 75% | Efficiency (uptake of Cy-5 labelled PNA) (CEM-SS [13]): 78% | Efficiency (uptake of Cy-5 labelled PNA) (Jurkat [14]): 81% | Efficiency (uptake of Cy-5 labelled PNA) (HepG2 [15]): 71% | Efficiency (uptake of Cy-5 labelled PNA) (MT4 [16]): 67% | Efficiency (uptake of Cy-5 labelled PNA) (Hela [17]): 78% | Efficiency (uptake of Cy-5 labelled PNA) (U2OS [18]): 89% | Efficiency (uptake of Cy-5 labelled PNA) (HS-68 [19]): 71% | Efficiency (uptake of Cy-5 labelled PNA) (MCF7 [20]): 83% | Efficiency (uptake of Cy-5 labelled PNA) (C2C12 [21]): 69% | Efficiency (uptake of Cy-5 labelled PNA) (STEM [22]): 88% | Efficiency (uptake of Cy-5 labelled PNA) (MEF [23]): 74% | Binding ([24]; cargo AZT): No | Binding ([24]; cargo Doxorubicin): yes | Binding ([24]; cargo FAM-guanosine): yes | Kd ([24]; cargo FAM-guanosine): 800 nM | Binding ([24]; cargo porphyrin): yes | Kd ([24]; cargo porphyrin): 110 nM
